Test results from PMC10641921, “Optimization of mTOR Inhibitors Using Property-Based Drug Design and Free–Wilson Analysis for Improved In Vivo Efficacy” (ACS Medicinal Chemistry Letters, 2023).
Like-named read-outs stand apart in the source and are kept apart here.

Tests used:
PI3Kα = PI3Kα enzyme selectivity (PI3Kα IC50 over mTOR IC50); type: biochemical; settings: ratio of PI3Kα enzyme IC50 over mTOR enzyme IC50
[1] = tested on: pAKT-S473 in PC-3 cells (TORC2); test: Cellular p-AKT (ser473) AlphaScreen assay in PC-3 cells (TORC2 activity); type: cell-based, human
Procedure: The target product profile for 1 and the next-generation analogs described here was for a dual inhibitor against both TORC1 and TORC2.
FRAP1 (mTOR) recombinant protein and GFP-4E-BP1 were purchased from Invitrogen (Carlsbad, CA, US).
The kinase activity assay was conducted in 50 mM Hepes buffer containing 10 mM MgCl2, 0.01% Brij, 0.2 mM EDTA, 2 mM DTT and 1% DMSO (after compound addition) at pH 7.3.
The IC50 value for each compound was determined in the presence of compound (various concentrations, from 0 to 10 μM) and a fixed amount of ATP (50 μM, final concentration), substrate GFP-4E-BP1 (400 nM, final concentration). The enzymatic reaction was initiated by adding FRAP1 (mTOR) (2 nM, final concentration). The assay was conducted at room temperature (~22 °C). After 30 min, the enzymatic reaction was stopped using Tb-anti-p4E-BP1 (2 nM final concentration, Invitrogen) and EDTA (20 mM final concentration, Sigma) in TR-FRET dilution buffer provided by Invitrogen. All the reagents were dispensed using a Multidrop Combi reagent dispenser (ThermoFisher Scientific, Waltham, […]
The release of product was detected using a BMG PHERAstar plate reader (BMG LABTECH, Ortenberg, Germany) and the Lantha Screen module (337 nm excitation wavelength) and measuring the ratio of fluorescence 520/490 nm (emission wavelengths). Experimental data was fitted using Eq. (1):
Vi and Vo are the rates of the enzyme activity in the presence and in the absence of inhibitor; n is the Hill coefficient; I is the free inhibitor concentration; IC 50 is a measure of potency that is equivalent to a […]
Cellular p-AKT (ser473) assay in PC-3 cells
PC-3 cells (PTEN deleted, human prostate cell line) were maintained in F12K media with 10% heat-inactivated fetal bovine serum (FBS) in 37 °C, 5% CO2 incubator. This method describes the procedure […]
from Perkin Elmer (catalog# TGRAS500). On day 1, 50,000 PC-3 cells were plated in 160 µL complete […]
Plates were placed in 37 °C, 5%
CO2 incubator for 24 h. On day 2, all media was removed and replaced with 160 µL starvation media which is F12K media (no FBS) and 0.1% BSA. Plates are placed in 37 °C, 5% CO2 incubator for 16 h. On day 3, compounds were both solubilized and serially diluted in DMSO and added to a secondary plate containing starvation media. 40 µL of compound/starvation media were added to the 160 µL in cell plate and plates were placed back in the incubator for 1 h. Cells were then activated by adding 22 µL FBS (for a final concentration of 10% FBS) for 10 min in the incubator. Media was removed from the well and cells were lysed in 100 µL SureFire kit lysis buffer and then shake n for 15 min at 900 rpm. AlphaScreen […]
assay was performed according to manufacturer’s instructions. 4 µL of lysate was added to PerkinElmer 96-well Proxiplate then 5 µL of Reaction Buffer plus Activation Buffer. Plates were shaken for 2 h at room temperature. 2 µL of Donor Beads in Dilution Buffer were added to the plate and the plate was shaken for 2 h at room temperature. The plate was read using BMG Labtech PHERAstar using AlphaScreen settings. Each analog was run in duplicate wells and a single IC50 value was calculated in […]

[2] = Human liver microsome intrinsic clearance; type: in vitro ADME; settings: apparent intrinsic clearance, scaled
Rat PK (iv and po) = type: in vivo; settings: for bioavailability: in vivo, 4 mg/kg; for bioavailability / Cl / Vd: iv 1 mpk; for bioavailability / Cmax: po 4 mpk in 0.5% methylcellulose; for frac. abs.: estimated from %F, Cl and Qh = 70 mL min^–1 kg^–1
Source text: This was an early indication that the strategy of increasing potency while lowering lipophilicity would allow us to meet our goal of improving prospects for favorable PK and dose.

[3] = tested on: CYP 2C8, 1A2, 2C9, 2C19, 2D6 and 3A4; test: CYP inhibition, all isoforms tested; type: in vitro ADME; settings: human
Source text: We also desired to remove the aniline structural alert present in the aryl urea moiety, which has been associated with idiosyncratic adverse drug reactions.[16]

CYP2C8 = biological target: T1, CYP2C8 (Homo sapiens, UniProt P10632); test: CYP inhibition, 2C8; type: in vitro ADME; settings: most potently inhibited CYP isoform
T1 sequence (P10632 1-490): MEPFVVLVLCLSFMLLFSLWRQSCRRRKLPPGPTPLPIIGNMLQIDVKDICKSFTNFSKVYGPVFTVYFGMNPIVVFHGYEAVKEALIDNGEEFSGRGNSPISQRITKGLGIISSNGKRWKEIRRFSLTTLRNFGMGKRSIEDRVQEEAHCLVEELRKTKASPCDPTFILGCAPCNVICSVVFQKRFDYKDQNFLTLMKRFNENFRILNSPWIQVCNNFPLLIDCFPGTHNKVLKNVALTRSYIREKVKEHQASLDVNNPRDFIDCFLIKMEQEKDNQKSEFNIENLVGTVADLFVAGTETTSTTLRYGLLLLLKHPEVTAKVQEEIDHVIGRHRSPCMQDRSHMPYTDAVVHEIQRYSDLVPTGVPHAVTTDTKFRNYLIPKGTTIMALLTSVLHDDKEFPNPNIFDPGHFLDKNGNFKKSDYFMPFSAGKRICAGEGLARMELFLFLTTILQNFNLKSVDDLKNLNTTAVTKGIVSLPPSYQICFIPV

CYP-2C9 = CYP-2C9 (Homo sapiens, UniProt P11712); test: CYP inhibition, 2C9; type: in vitro ADME; settings: most potently inhibited isoform was CYP-2C9
CYP-2C9, sequence (P11712 whole entry, canonical isoform): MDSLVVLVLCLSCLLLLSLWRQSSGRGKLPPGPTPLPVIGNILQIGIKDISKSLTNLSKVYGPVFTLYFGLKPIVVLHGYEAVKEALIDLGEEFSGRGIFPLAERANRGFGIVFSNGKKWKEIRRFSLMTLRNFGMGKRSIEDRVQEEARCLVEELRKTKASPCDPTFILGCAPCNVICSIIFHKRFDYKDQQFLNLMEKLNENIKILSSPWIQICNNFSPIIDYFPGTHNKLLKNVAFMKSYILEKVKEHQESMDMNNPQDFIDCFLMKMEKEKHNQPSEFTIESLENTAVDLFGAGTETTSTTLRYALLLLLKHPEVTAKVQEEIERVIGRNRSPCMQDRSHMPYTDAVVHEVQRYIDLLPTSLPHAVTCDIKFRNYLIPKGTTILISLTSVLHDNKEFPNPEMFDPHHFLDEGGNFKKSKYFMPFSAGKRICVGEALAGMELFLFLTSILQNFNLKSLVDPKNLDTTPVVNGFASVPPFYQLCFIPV
Source text: Table 3 New Combinations from Free–Wilson Analysis | column: CYP IC50/μM ^c

[4] = Homo sapiens, PC-3, PC-3 cell line, read-out: pAKT S473 Cell IC50
[5] = Homo sapiens, p-AKT S473, PC-3 cells, mean of N runs, read-out: Cell pEC50 (converted)
[6] = PC-3 cell line, read-out: pAKT S473 Cell IC50
[7] = Homo sapiens, PC-3, read-out: Cell pEC50 (converted)
[8] = Homo sapiens, PC-3, read-out: pAKT S473 Cell IC50

| SMILES | PI3Kα Sel (PI3Kα) | IC50 [1, 4] | EC50 [1, 5] | PI3Kα Sel (PI3Kα; Table 2, unit not given) | HLM Clint [2] | further results |
| --- | --- | --- | --- | --- | --- | --- |
| C[C@@]12COCCN1c1nc(-c3ccc(NC(=O)NC4CC4)cc3)ncc1N(CC1CC1)C2=O [3a] | 100x | 38 nM | 38 nM | – | – | – |
| C[C@@]12COCCN1c1nc(-c3cnc4[nH]ccc4c3)ncc1N(CC1CC1)C2=O [3b] | 48x | 51 nM | 51.3 nM | – | – | – |
| C[C@@]12COCCN1c1nc(-c3cnc4cc[nH]c4c3)ncc1N(CC1CC1)C2=O [3c] | 26x | 91 nM | 91.2 nM | – | – | – |
| C[C@@]12COCCN1c1nc(-c3ccc(NC(=O)NC4CC4)cc3)ncc1N(C1CCOCC1)C2=O [4a] | 63x | 42 nM | 41.7 nM | – | – | – |
| C[C@@]12COCCN1c1nc(-c3cnc4[nH]ccc4c3)ncc1N(C1CCOCC1)C2=O [4b] | 23x | 62 nM | 61.7 nM | 23 | 6 mL min^–1 kg^–1 | – |
| C[C@@]12COCCN1c1nc(-c3cnc4cc[nH]c4c3)ncc1N(C1CCOCC1)C2=O [4c] | 13x | 100 nM | 105 nM | – | – | – |
| C[C@@]12COCCN1c1nc(-c3c[nH]c4ccccc34)ncc1N(C1CCOCC1)C2=O [4d] | 120x | ≤ 30 nM | 29.5 nM | – | – | IC50 [1, 6]: 30 nM |
| C[C@@]12COCCN1c1nc(-c3cccc4[nH]ccc34)ncc1N(C1CCOCC1)C2=O [4e] | 110x | ≤ 30 nM | 21.4 nM | 110 | 10 mL min^–1 kg^–1 | bioavailability (Rat PK (iv and po)): 91%; Cl (Rat PK (iv and po)): 15 mL min^–1 kg^–1; IC50 [3]: > 40 µM; IC50 [1, 6]: 21 nM |
| C[C@@]12COCCN1c1nc(-c3cncc4[nH]ccc34)ncc1N(C1CCOCC1)C2=O [4f] | 84x | 17 nM | 16.6 nM | – | – | – |
| Cc1ccc(-c2ncc3c(n2)N2CCOC[C@@]2(C)C(=O)N3C2CCOCC2)c2cc[nH]c12 [4g] | 450x | 26 nM | 25.7 nM | – | – | – |
| Cc1ncc(-c2ncc3c(n2)N2CCOC[C@@]2(C)C(=O)N3C2CCOCC2)c2cc[nH]c12 [4h] | 270x | 48 nM | 47.9 nM | – | – | – |
| Cc1cccc2c(-c3ncc4c(n3)N3CCOC[C@@]3(C)C(=O)N4C3CCOCC3)c[nH]c12 [4i] | 640x | 9 nM | 8.71 nM | – | – | IC50 (CYP2C8): 1000 nM |
| C[C@@]12COCCN1c1nc(-c3cnc4[nH]ccc4c3)ncc1N(C1CCOC1)C2=O (some centres unmarked) [13a] | – | 74 nM | 74.1 nM | 5 | 12 mL min^–1 kg^–1 | – |
| COCCCN1C(=O)[C@]2(C)COCCN2c2nc(-c3cnc4[nH]ccc4c3)ncc21 [13b] | – | 57 nM | 57.5 nM | 9 | 32 mL min^–1 kg^–1 | – |
| C[C@@]12COCCN1c1nc(-c3cnc4[nH]ccc4c3)ncc1N(CCCO)C2=O [13c] | – | 170 nM | 170 nM | 9 | 9 mL min^–1 kg^–1 | – |
| C[C@@]12COCCN1c1nc(-c3cnc4[nH]ccc4c3)ncc1N(C1(CCO)CC1)C2=O [13d] | – | 61 nM | 61.7 nM | 59 | 11 mL min^–1 kg^–1 | – |
| C[C@@]12COCCN1c1nc(-c3cnc4[nH]ccc4c3)ncc1N(C1CCN(S(C)(=O)=O)CC1)C2=O [13e] | – | – | – | 14 | 6 mL min^–1 kg^–1 | EC50 [1, 7]: 120 nM; IC50 [1, 8]: 120 nM |
| CC(=O)N1CCC(N2C(=O)[C@]3(C)COCCN3c3nc(-c4cccc5[nH]ccc45)ncc32)CC1 [14a] | – | – | – | 120 | 6 mL min^–1 kg^–1 | EC50 [1, 7]: 55 nM; IC50 [1, 8]: 55 nM |
| C[C@@]12COCCN1c1nc(-c3cccc4[nH]ccc34)ncc1N([C@H]1CC[C@@H](O)CC1)C2=O [14b] | – | 14 nM | 14.1 nM | 110 | 6 mL min^–1 kg^–1 | frac. abs. (Rat PK (iv and po)): 100%; bioavailability (Rat PK (iv and po)): 100%; Cl (Rat PK (iv and po)): 11 mL min^–1 kg^–1; Vd (Rat PK (iv and po)): 3.9 L/kg; Cmax (Rat PK (iv and po)): 1400 nM; PI3Ka sel. (PI3Kα): 110 ×; IC50 (CYP2C8): 4000 nM |
| Cc1ccc(-c2ncc3c(n2)N2CCOC[C@@]2(C)C(=O)N3[C@H]2CC[C@H](O)CC2)c2cc[nH]c12 [15a] | – | – | – | – | 6 mL min^–1 kg^–1 | frac. abs. (Rat PK (iv and po)): 41%; bioavailability (Rat PK (iv and po)): 35%; Cl (Rat PK (iv and po)): 10 mL min^–1 kg^–1; Vd (Rat PK (iv and po)): 1.6 L/kg; Cmax (Rat PK (iv and po)): 570 nM; IC50 (CYP-2C9): 5 µM |
| Cc1cccc2c(-c3ncc4c(n3)N3CCOC[C@@]3(C)C(=O)N4[C@H]3CC[C@H](O)CC3)c[nH]c12 [15b] | – | – | – | – | 7 mL min^–1 kg^–1 | IC50 (CYP2C8): 3000 nM |
| Cc1ccc(-c2ncc3c(n2)N2CCOC[C@@]2(C)C(=O)N3[C@H]2CC[C@@H](O)CC2)c2cc[nH]c12 [15c] | – | – | – | – | 8 mL min^–1 kg^–1 | IC50 (CYP2C8): 3000 nM |
| Cc1cccc2c(-c3ncc4c(n3)N3CCOC[C@@]3(C)C(=O)N4[C@H]3CC[C@@H](O)CC3)c[nH]c12 [15d] | – | – | – | – | 7 mL min^–1 kg^–1 | IC50 (CYP2C8): 800 nM |
| Cc1cccc2c(-c3ncc4c(n3)N3CCOC[C@@]3(C)C(=O)N4C3(CCO)CC3)c[nH]c12 [15e] | – | – | – | – | 6 mL min^–1 kg^–1 | EC50 [1, 7]: 4.57 nM; IC50 ([1]; Homo sapiens, PC-3, read-out: pAKT S473 Cell IC50, PC-3 cell line): 5 nM; IC50 (CYP2C8): 1300 nM |
